Results: patent US20260022143A1, “Cyclic Peptide Inhibitors of IL-23” (JANSSEN PHARMACEUTICA NV, priority 2022, published 2026)
Starred links: 1 amine or outer side, 2 acyl side, 3 side chain; linkers in the order of their positions; H or OH if unused. Positions of bridges follow the written chain, without caps; N, C: chain ends. Non-standard residues stand in square brackets, D forms with d. Residues, ends and D or L forms follow the SMILES beside them. *: point of attachment. Trp(7-(3-AcNH-Ph)) = CC(=O)Nc1cccc(-c2cccc3c(C[C@H](N)C(=O)O)c[nH]c23)c1; X36 = C[N+]1(CCCc2cn(-c3ccc(C[C@H](N[*:1])C(=O)[*:2])cc3)nn2)CCOCC1; X33 = C[N+](C)(C)CCCCc1cn(-c2ccc(C[C@H](N[*:1])C(=O)[*:2])cc2)nn1; X16 = C[N+](C)(C)Cc1cn(-c2ccc(C[C@H](N[*:1])C(=O)[*:2])cc2)nn1; Me3N+(CH2)2O(CH2)2O(CH2)2CO = C[N+](C)(C)CCOCCOCCC(=O)*; CH2CH2OCH2CH2OCH2CH2NMe3+ = C[N+](C)(C)CCOCCOCC*; Phe(4-N3) = [N-]=[N+]=Nc1ccc(C[C@H](N)C(=O)O)cc1; Trp(7-Me) = Cc1cccc2c(C[C@H](N)C(=O)O)c[nH]c12; X20 = C[N+](C)(C)CC[C@H](N[*:1])C(=O)[*:2]; dLys(Me3) = C[N+](C)(C)CCCC[C@@H](N)C(=O)O; 2Nal = N[C@@H](Cc1ccc2ccccc2c1)C(=O)O; AEF = NCCOc1ccc(C[C@H](N)C(=O)O)cc1; X22 = CN1CC[N+](C)(CCOCCOCC*)CC1; 3Pal = N[C@@H](Cc1cccnc1)C(=O)O; Lys(Me) = CNCCCC[C@H](N)C(=O)O; X53 = C[N+]1(CCOCCOCC*)CCOCC1; Pen = CC(C)(S)[C@H](N)C(=O)O; Thp = NC1(C(=O)O)CCOCC1; X3 = C[N+](C)(C)CCCCC*; Sar = CNCC(=O)O

Assay: Exposed Polar Surface Area (EPSA)
Assay type: physicochemical
Conditions: SFC on Chirex 3014 column; sample 1 mM DMSO stock; read-out: EPSA
In short: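 Retention-based polarity: supercritical CO2 with 20 mM ammonium formate in MeOH (5–60%, 20%/min), Chirex 3014 column, 35 °C. Calibrated against 8 standards to give EPSA (Å^2); each sample measured twice.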

Row | EPSA [A^2] | Compound
1 | 167 | CC(=O)NCCCC[C@@H]1NC(=O)[C@H](Cc2c[nH]c3c(C)cccc23)NC(=O)[C@H]([C@@H](C)O)NC(=O)[C@H](CC(N)=O)NC(=O)[C@@H](NC(C)=O)C(C)(C)SSC(C)(C)[C@@H](C(=O)N[C@@H](Cc2ccc(OCCOCCOCC[N+]3(C)CCOCC3)cc2)C(=O)N[C@@H](Cc2ccc3ccccc3c2)C(=O)NC2(C(=O)N[C@@H](CCC(=O)O)C(=O)N[C@@H](CC(N)=O)C(=O)N[C@@H](Cc3cccnc3)C(=O)N(C)CC(N)=O)CCOCC2)NC1=O [compound 432] (Ac-[Pen]NT[Trp(7-Me)]K(Ac)[Pen]Y(X53)[2Nal][Thp]EN[3Pal][Sar]-NH2; disulfide 1-6 (inferred))
2 | 164 | CC(=O)NCCCC[C@@H]1NC(=O)[C@H](Cc2c[nH]c3c(C)cccc23)NC(=O)[C@H]([C@@H](C)O)NC(=O)[C@H](CC(N)=O)NC(=O)[C@@H](NC(C)=O)C(C)(C)SSC(C)(C)[C@@H](C(=O)N[C@@H](Cc2ccc(OCCOCCOCC[N+]3(C)CCN(C)CC3)cc2)C(=O)N[C@@H](Cc2ccc3ccccc3c2)C(=O)NC2(C(=O)N[C@@H](CCC(=O)O)C(=O)N[C@@H](CC(N)=O)C(=O)N[C@@H](Cc3cccnc3)C(=O)N(C)CC(N)=O)CCOCC2)NC1=O [compound 433] (Ac-[Pen]NT[Trp(7-Me)]K(Ac)[Pen]Y(X22)[2Nal][Thp]EN[3Pal][Sar]-NH2; disulfide 1-6 (inferred))
3 | 182 | CC(=O)NCCCC[C@@H]1NC(=O)[C@H](Cc2c[nH]c3c(C)cccc23)NC(=O)[C@H]([C@@H](C)O)NC(=O)[C@H](CC(N)=O)NC(=O)[C@@H](NC(C)=O)C(C)(C)SSC(C)(C)[C@@H](C(=O)N[C@@H](Cc2ccc(N=[N+]=[N-])cc2)C(=O)N[C@@H](Cc2ccc3ccccc3c2)C(=O)NC2(C(=O)N[C@@H](CCC(=O)O)C(=O)N[C@@H](CC(N)=O)C(=O)N[C@@H](Cc3cccnc3)C(=O)N(C)CC(N)=O)CCOCC2)NC1=O [compound 435] (Ac-[Pen]NT[Trp(7-Me)]K(Ac)[Pen][Phe(4-N3)][2Nal][Thp]EN[3Pal][Sar]-NH2; disulfide 1-6 (inferred))
4 | 149 | CC(=O)N[C@@H]1C(=O)N[C@@H](CC[N+](C)(C)C)C(=O)N[C@@H]([C@@H](C)O)C(=O)N[C@@H](Cc2c[nH]c3c(C)cccc23)C(=O)N[C@@H](CCCCN(C)C(C)=O)C(=O)N[C@H](C(=O)N[C@@H](Cc2ccc(OCCOCCOCC[N+](C)(C)C)cc2)C(=O)N[C@@H](Cc2ccc3ccccc3c2)C(=O)NC2(C(=O)N[C@@H](CCCCN(C)C(C)=O)C(=O)N[C@@H](CC(N)=O)C(=O)N[C@@H](Cc3cccnc3)C(=O)N(C)CC(=O)N(C)C)CCOCC2)C(C)(C)SSC1(C)C [compound 436] (Ac-[Pen][X20]T[Trp(7-Me)][Lys(Me)](Ac)[Pen]Y(CH2CH2OCH2CH2OCH2CH2NMe3+)[2Nal][Thp][Lys(Me)](Ac)N[3Pal][Sar]-NMe2; disulfide 1-6)
5 | 167 | CC(=O)NCCCC[C@@H]1NC(=O)[C@H](Cc2c[nH]c3c(C)cccc23)NC(=O)[C@H]([C@@H](C)O)NC(=O)[C@H](CC(N)=O)NC(=O)[C@@H](NC(=O)CCOCCOCC[N+](C)(C)C)C(C)(C)SSC(C)(C)[C@@H](C(=O)N[C@@H](Cc2ccc(-n3cc(CCC[N+]4(C)CCOCC4)nn3)cc2)C(=O)N[C@@H](Cc2ccc3ccccc3c2)C(=O)NC2(C(=O)N[C@@H](CCCCNC(C)=O)C(=O)N[C@@H](CC(N)=O)C(=O)N[C@@H](Cc3cccnc3)C(=O)N(C)CC(N)=O)CCOCC2)NC1=O [compound 439, cPEG3aCO-Pen(3)-N-T-7MeW-K(Ac)-Pen(3)-F(4TzlMMo3)-2Nal-THP-K(Ac)-N-3Pya-Sar-CONH2] ({Me3N+(CH2)2O(CH2)2O(CH2)2CO}-[Pen]NT[Trp(7-Me)]K(Ac)[Pen][X36][2Nal][Thp]K(Ac)N[3Pal][Sar]-NH2; disulfide 1-6)
6 | 176 | CC(=O)NCCCC[C@@H]1NC(=O)[C@H](Cc2c[nH]c3c(C)cccc23)NC(=O)[C@H]([C@@H](C)O)NC(=O)[C@H](CC(N)=O)NC(=O)[C@@H](NC(C)=O)C(C)(C)SSC(C)(C)[C@@H](C(=O)N[C@@H](Cc2ccc(-n3cc(C[N+](C)(C)C)nn3)cc2)C(=O)N[C@@H](Cc2ccc3ccccc3c2)C(=O)NC2(C(=O)N[C@@H](CCC(=O)O)C(=O)N[C@@H](CC(N)=O)C(=O)N[C@@H](Cc3cccnc3)C(=O)N(C)CC(N)=O)CCOCC2)NC1=O [compound 441] (Ac-[Pen]NT[Trp(7-Me)]K(Ac)[Pen][X16][2Nal][Thp]EN[3Pal][Sar]-NH2; disulfide 1-6 (inferred))
7 | 169 | CC(=O)NCCCC[C@@H]1NC(=O)[C@H](Cc2c[nH]c3c(C)cccc23)NC(=O)[C@H]([C@@H](C)O)NC(=O)[C@H](CC(N)=O)NC(=O)[C@@H](NC(C)=O)C(C)(C)SSC(C)(C)[C@@H](C(=O)N[C@@H](Cc2ccc(-n3cc(CCCC[N+](C)(C)C)nn3)cc2)C(=O)N[C@@H](Cc2ccc3ccccc3c2)C(=O)NC2(C(=O)N[C@@H](CCC(=O)O)C(=O)N[C@@H](CC(N)=O)C(=O)N[C@@H](Cc3cccnc3)C(=O)N(C)CC(N)=O)CCOCC2)NC1=O [compound 442] (Ac-[Pen]NT[Trp(7-Me)]K(Ac)[Pen][X33][2Nal][Thp]EN[3Pal][Sar]-NH2; disulfide 1-6 (inferred))
8 | 174 | CC(=O)NCCCC[C@@H]1NC(=O)[C@H](Cc2c[nH]c3c(-c4cccc(NC(C)=O)c4)cccc23)NC(=O)[C@H]([C@@H](C)O)NC(=O)[C@H](CC(N)=O)NC(=O)[C@@H](NC(=O)CCOCCOCC[N+](C)(C)C)C(C)(C)SSC(C)(C)[C@@H](C(=O)N[C@@H](Cc2ccc(OCCCCC[N+](C)(C)C)cc2)C(=O)N[C@@H](Cc2ccc3ccccc3c2)C(=O)NC2(C(=O)N[C@@H](CCC(=O)O)C(=O)N[C@@H](CC(N)=O)C(=O)N[C@@H](Cc3cccnc3)C(=O)N(C)CC(N)=O)CCOCC2)NC1=O [compound 444, cPEG3aCO-Pen(3)-N-T-7(3NAcPh)W-K(Ac)-Pen(3)-TMAPF-2Nal-THP-E-N-3Pya-Sar-CONH2] ({Me3N+(CH2)2O(CH2)2O(CH2)2CO}-[Pen]NT[Trp(7-(3-AcNH-Ph))]K(Ac)[Pen]Y(X3)[2Nal][Thp]EN[3Pal][Sar]-NH2; disulfide 1-6)
9 | 176 | CC(=O)NCCCC[C@@H]1NC(=O)[C@H](Cc2c[nH]c3c(-c4cccc(NC(C)=O)c4)cccc23)NC(=O)[C@H]([C@@H](C)O)NC(=O)[C@H](CC(N)=O)NC(=O)[C@@H](NC(=O)CCOCCOCC[N+](C)(C)C)C(C)(C)SSC(C)(C)[C@@H](C(=O)N[C@@H](Cc2ccc(OCCN)cc2)C(=O)N[C@@H](Cc2ccc3ccccc3c2)C(=O)NC2(C(=O)N[C@@H](CCCCNC(C)=O)C(=O)N[C@@H](CC(N)=O)C(=O)N[C@@H](Cc3cccnc3)C(=O)N(C)CC(N)=O)CCOCC2)NC1=O [compound 445, cPEG3aCO-Pen(3)-N-T-7(3NAcPh)W-K(Ac)-Pen(3)-AEF-2Nal-THP-K(Ac)-N-3Pya-Sar-CONH2] ({Me3N+(CH2)2O(CH2)2O(CH2)2CO}-[Pen]NT[Trp(7-(3-AcNH-Ph))]K(Ac)[Pen][AEF][2Nal][Thp]K(Ac)N[3Pal][Sar]-NH2; disulfide 1-6)
10 | 173 | CC(=O)NCCCC[C@@H]1NC(=O)[C@H](Cc2c[nH]c3c(C)cccc23)NC(=O)[C@H]([C@@H](C)O)NC(=O)[C@H](CC(N)=O)NC(=O)[C@@H](NC(=O)[C@@H](CCCC[N+](C)(C)C)NC(C)=O)C(C)(C)SSC(C)(C)[C@@H](C(=O)N[C@@H](Cc2ccc(OCCCCC[N+](C)(C)C)cc2)C(=O)N[C@@H](Cc2ccc3ccccc3c2)C(=O)NC2(C(=O)N[C@@H](CCC(=O)O)C(=O)N[C@@H](CC(N)=O)C(=O)N[C@@H](Cc3cccnc3)C(=O)N(C)CC(N)=O)CCOCC2)NC1=O [compound 446, MeCO-k(Me)3-Pen(3)-N-T-7MeW-K(Ac)-Pen(3)-TMAPF-2Nal-THP-E-N-3Pya-Sar-CONH2] (Ac-[dLys(Me3)][Pen]NT[Trp(7-Me)]K(Ac)[Pen]Y(X3)[2Nal][Thp]EN[3Pal][Sar]-NH2; disulfide 2-7)
11 | 176 | CC(=O)NCCCC[C@@H]1NC(=O)[C@H](Cc2c[nH]c3c(-c4cccc(NC(C)=O)c4)cccc23)NC(=O)[C@H]([C@@H](C)O)NC(=O)[C@H](CC(N)=O)NC(=O)[C@@H](NC(=O)[C@@H](CCCC[N+](C)(C)C)NC(C)=O)C(C)(C)SSC(C)(C)[C@@H](C(=O)N[C@@H](Cc2ccc(OCCN)cc2)C(=O)N[C@@H](Cc2ccc3ccccc3c2)C(=O)NC2(C(=O)N[C@@H](CCCCNC(C)=O)C(=O)N[C@@H](CC(N)=O)C(=O)N[C@@H](Cc3cccnc3)C(=O)N(C)CC(N)=O)CCOCC2)NC1=O [compound 449] (Ac-[dLys(Me3)][Pen]NT[Trp(7-(3-AcNH-Ph))]K(Ac)[Pen][AEF][2Nal][Thp]K(Ac)N[3Pal][Sar]-NH2; disulfide 2-7)
12 | 165 | CC(=O)NCCCC[C@@H]1NC(=O)[C@H](Cc2c[nH]c3c(C)cccc23)NC(=O)[C@H]([C@@H](C)O)NC(=O)[C@H](CC(N)=O)NC(=O)[C@@H](NC(=O)[C@@H](CCCC[N+](C)(C)C)NC(C)=O)C(C)(C)SSC(C)(C)[C@@H](C(=O)N[C@@H](Cc2ccc(OCCCCC[N+](C)(C)C)cc2)C(=O)N[C@@H](Cc2ccc3ccccc3c2)C(=O)NC2(C(=O)N[C@@H](CCCCNC(C)=O)C(=O)N[C@@H](CC(N)=O)C(=O)N[C@@H](Cc3cccnc3)C(=O)N(C)CC(N)=O)CCOCC2)NC1=O [compound 450, MeCO-k(Me)3-Pen(3)-N-T-7MeW-K(Ac)-Pen(3)-TMAPF-2Nal-THP-K(Ac)-N-3Pya-Sar-CONH2] (Ac-[dLys(Me3)][Pen]NT[Trp(7-Me)]K(Ac)[Pen]Y(X3)[2Nal][Thp]K(Ac)N[3Pal][Sar]-NH2; disulfide 2-7)
13 | 163 | CC(=O)NCCCC[C@@H]1NC(=O)[C@H](Cc2c[nH]c3c(-c4cccc(NC(C)=O)c4)cccc23)NC(=O)[C@H]([C@@H](C)O)NC(=O)[C@H](CC(N)=O)NC(=O)[C@@H](NC(C)=O)C(C)(C)SSC(C)(C)[C@@H](C(=O)N[C@@H](Cc2ccc(OCCCCC[N+](C)(C)C)cc2)C(=O)N[C@@H](Cc2ccc3ccccc3c2)C(=O)NC2(C(=O)N[C@@H](CCCCNC(C)=O)C(=O)N[C@@H](CC(N)=O)C(=O)N[C@@H](Cc3cccnc3)C(=O)N(C)CC(N)=O)CCOCC2)NC1=O [compound 452, MeCO-Pen(3)-N-T-7(3NAcPh)W-K(Ac)-Pen(3)-TMAPF-2Nal-THP-K(Ac)-N-3Pya-Sar-CONH2] (Ac-[Pen]NT[Trp(7-(3-AcNH-Ph))]K(Ac)[Pen]Y(X3)[2Nal][Thp]K(Ac)N[3Pal][Sar]-NH2; disulfide 1-6)
